Measured values taken from patent publication US7829499B2, “Granular pesticide preparation” (Kumiai Chemical Industry Co., Ltd., priority 2003, dated 2010).

Experiment: pKa of the pesticidal active ingredient
Type: physicochemical
From the text: When the acidic pesticidal active ingredient having the above specified pKa is used, the pKa of the ingredient is, for example, measured by a method described in “Jikken Kagaku Kouza”, Vol. 5 (thermal measurement and equilibrium), p. 469-p. 474, Maruzen Co., Ltd. published Jan. 20, 1958 and elsewhere.

| Compound | pKa |
| --- | --- |
| CCc1cccc(C(O)c2nc(OC)cc(OC)n2)c1NS(=O)(=O)C(F)F (centres unmarked) [compound B, 2-[(4,6-dimethoxypyrimidin-2-yl)hydroxymethyl]-6-ethyl-N-difluoromethanesulfonyl anilide] | 6.17 |
| COCc1cccc(C(O)c2nc(OC)cc(OC)n2)c1NS(=O)(=O)C(F)F (centres unmarked) [compound A, 2-[(4,6-dimethoxypyrimidin-2-yl)hydroxymethyl]-6-methoxymethyl-N-difluoromethanesulfonyl anilide] | 5.75 |
